In patent US20060240026A1, “Preventing and/or remedy hematopoietic tumor” (GREEN PEPTIDE CO., LTD., priority 2003, published 2006):
“Also recorded” adds a separate entry of the source. Ends that are not written are not given here.

Columns and labels:
[1] = system: HLA-A24- hematologic malignant cell line (HPB-MLT); assay: 51Cr-release test of peptide-stimulated PBMCs against HLA-A24- malignant line; assay type: cell-based, human; details: peptide-stimulated patient PBMCs further cultured with IL-2; effector/target 3, 10 or 30; 6 h
Method: (§1) Then, the cytotoxicity against hematologic malignant cell lines was examined by a standard ^51Cr-release test (Non-Patent Reference 5). Specifically, the PBMCs obtained were used as an effector to mix with ^51Cr-labelled target cells (hereinafter referred to as targets) at an effector/target rate of 3, 10 or 30, and then incubated for six hours, followed by measuring the radioactivity of ^51Cr released in the supernatants. The results obtained were indicated as % lysis which was calculated by regarding a radioactivity as 100% when the targets were completely dissolved. The following targets were used: PEER, an HLA-A24^+ hematologic malignant cell line; HPB-MLT, an HLA-A24^− hematologic malignant cell line; and an HLA-A24^+ PHA blastoid T-cell.

[2] = system: HLA-A24+ hematologic malignant cell line (PEER, REH); assay: 51Cr-release test of peptide-stimulated PBMCs against HLA-A24+ malignant line; assay type: cell-based, human; details: peptide-stimulated patient PBMCs further cultured with IL-2; effector/target 3, 10 or 30; 6 h
Method: as §1

[3] = system: HLA-A24+ PHA blastoid T-cell; assay: 51Cr-release test of peptide-stimulated PBMCs against normal cells; assay type: cell-based, human; details: peptide-stimulated patient PBMCs further cultured with IL-2; effector/target 3, 10 or 30; 6 h
Method: as §1

[4] = Side effects and skin test, chronic lymphocytic leukemia patient; assay type: in vivo, human
Method: Three kinds of emulsions each of which contains each of these peptides respectively and an adjuvant were prepared according to the method described in Example 1, and vaccinated to the patient by injecting subcutaneously at different sites of the patient's lateral thigh. […] The skin test was conducted by injecting intradermally the solution of 50 μg of each peptide in physiological saline and determining immediate-type or delayed-type hypersensitivity reaction at 20 minutes or 24 hours after the injection.
Therefore, SART-293 (SEQ ID NO: 5) and SART-3109 (SEQ ID NO: 8) were used for vaccination. […] In the clinical trials of peptide vaccines in epithelial cancer patients, there has been observed a correlation between the survival rate of patients and the increased humoral immune responses against the peptides used in the vaccines. From these facts, it was believed that SART-293 (SEQ ID NO: 5) and SART-3109 (SEQ ID NO: 8) were effective in this patient.
Thus, there were very few side effects observed.

[5] = system: C1R-A24 cells pulsed with the peptides; assay: Cytotoxic activity of PBMCs of vaccinated chronic lymphocytic leukemia patient (51Cr-release); assay type: in vivo, human; details: CLL patient No. 1, PBMCs after vaccination, 51Cr-release test
Text: (§2) Two kinds of emulsions prepared using these peptides according to the methods described in Example 5 were vaccinated to the patient by injecting subcutaneously at different sites of the patient's lateral thigh.

[6] = system: C1R-A24 cells pulsed with the peptides; assay: IFN-γ production of PBMCs of vaccinated chronic lymphocytic leukemia patient; assay type: in vivo, human; details: CLL patient No. 1, with the increasing number of peptide vaccination
Text: The patient (patient No. 1 in table 2) subjected to clinical trials was a HLA-A24^+ […] suffering from chronic lymphocytic leukemia with a stage A by Bernet's classification.
as §2
After each vaccination, PBMCs derived from the patient were studied for the peptide-specific cytotoxic T lymphocyte induction by measuring the amount of IFN-γ production as an indicator against C1R-A24 cells pulsed with the peptides used (see Example 3).

[7] = system: PBMCs of HLA-A24+ patients with hematologic malignancies; assay: IFN-γ production by peptide-stimulated patient PBMCs in response to peptide-pulsed C1R-A24 cells; assay type: cell-based, human; parameters: peptide-specific IFN-γ production: unit not given here; details: for peptide-specific IFN-γ production: 10 μM peptide in vitro, vs peptide-pulsed C1R-A24, HIV-peptide background subtracted
Method: The induction of peptide-specific cytotoxic T lymphocytes from PBMCs of a patient with hematologic malignancy was conducted as reported preveously (Non-Patent Reference 5). The following peptides were used to induce cytotoxic T lymphocytes: p56^lck protein-derived peptides (Lck208 (SEQ ID NO: 1), Lck488 (SEQ ID NO: 2) and Lck486 (SEQ ID NO: 3)); SART-1-derived peptide (SART-1690 (SEQ ID NO: 4)); SART-2-derived peptides (SART-293 (SEQ ID NO: 5), SART-2161 (SEQ ID NO: 6) and SART-2899 (SEQ ID NO: 7)); SART-3-derived peptides (SART-3109 (SEQ ID NO: 8) and SART-3315 (SEQ ID NO: 9)); and ART-1-derived peptide (ART-1170 (SEQ ID NO: 10)). All of these peptides are the epithelial cancer-related antigen-derived peptides and have the ability to induce cytotoxic T lymphocytes from PBMCs of an epithelial cancer patient in an HLA-A24 dependent manner (Non-Patent References 3-6 and 12). A human immunodeficiency virus (HIV)-derived peptide (SEQ ID NO: 11) and Epstein-Barr virus (EBV)-derived peptide (SEQ ID NO: 12) were used respectively as a negative control peptide and positive control peptide both of which have an HLA-A24-binding motif. […] PBMCs were prepared from peripheral blood that was collected from a patient with hematologic malignancy using Ficoll-Conray density-gradient centrifugation. The expression of HLA-A24 molecules on PBMCs was determined using flow cytometry by a well known method (Non-Patent Reference 5). The induction of cytotoxic T lymphocytes from PBMCs was conducted as follows. […] The culture medium consisted of 45% RPMI-1640, 45% AIM-V (Invitrogen), 10% FCS, 100 U/ml of interleukin-2 (IL-2), and 0.1 mM MEM non-essential amino acid solution (Invitrogen). […] The background IFN-γ production in response to the HIV-derived peptide (SEQ ID NO: 11) was subtracted from the values given in the data. When the mean value of the IFN-γ produced from the peptide-stimulated PBMCs in response to a corresponding peptide was higher than that produced in response to the HIV peptide (SEQ ID NO: 11), it was judged that the precursor of a peptide-specific cytotoxic T lymphocyte was present in the PBMCs and that the peptide-specific cytotoxic T lymphocytes were induced by the peptide. PBMCs of ten cases of HLA-A24^+ patients with hematologic malignancies (two cases with CLL, one case with MCL, one case with NHL, one case with B-ALL, one case with MM, one case with MDS, two cases with ATL, and one case with T-ALL) were tested for the induction of cytotoxic T lymphocytes using peptides that were derived from p56^lck protein, SART-1, SART-2, SART-3 and ART-1. The peptides used were the peptides that induced peptide-specific tumor-reactive cytotoxic T lymphocytes from PBMCs of an HLA-A24^+ epithelial cancer patient, which are currently on clinical trials for use as vaccines for epithelial cancer patients. The PBMCs were stimulated with the peptide in vitro to measure the peptide-specific IFN-γ production.

## AYDFLYNYL [SART-2161]
[1]
  cytotoxic activity (% lysis) against HLA-A24- hematologic malignant line: did not show cytotoxic activity; also recorded: did not exhibit cytotoxic activity
[2]
  cytotoxic activity (% lysis) against HLA-A24+ hematologic malignant line: significant cytotoxic activity; also recorded: exhibited cytotoxic activity
[3]
  cytotoxic activity (% lysis) against HLA-A24+ PHA blastoid T-cells: did not show cytotoxic activity; also recorded: did not exhibit cytotoxic activity

## EYCLKFTKL [ART-1170]
[4]; CLL patient No. 1, before vaccination
  immediate hypersensitivity reaction in skin test: caused immediate hypersensitivity reaction

## SART-293: SART-2-derived peptide; epithelial cancer-related antigen peptide (DYSARWNEI; Partial peptide of SART-2)
[5]
  cytotoxic activity against peptide-pulsed C1R-A24 cells versus cells pulsed with HIV-derived peptide: higher cytotoxic activity
[6]
  IFN-γ production in response to C1R-A24 cells pulsed with the peptide: enhanced production of interferon (IFN)-γ
[7]; PBMCs of patient #1 CLL
  peptide-specific IFN-γ production: 0
[7]; PBMCs of patient #2 CLL
  peptide-specific IFN-γ production: 440
[7]; PBMCs of patient #3 MCL
  peptide-specific IFN-γ production: 9
[7]; PBMCs of patient #4 NHL
  peptide-specific IFN-γ production: 63
[7]; PBMCs of patient #5 B-ALL
  peptide-specific IFN-γ production: 20
[7]; PBMCs of patient #6 MM
  peptide-specific IFN-γ production: 28
[7]; PBMCs of patient #7 MDS
  peptide-specific IFN-γ production: 0
[7]; PBMCs of patient #8 ATL
  peptide-specific IFN-γ production: 0
[7]; PBMCs of patient #9 ATL
  peptide-specific IFN-γ production: 354
[7]; PBMCs of patient #10 T-ALL
  peptide-specific IFN-γ production: 192
[7]; ten HLA-A24+ patients with hematologic malignancies
  Responding case/total (enhancement of IFN-γ production): 3/10

## SYTRLFLIL [SART-2899]
[1]
  cytotoxic activity (% lysis) against HLA-A24- hematologic malignant line: did not show cytotoxic activity
[2]
  cytotoxic activity (% lysis) against HLA-A24+ hematologic malignant line: significant cytotoxic activity
[3]
  cytotoxic activity (% lysis) against HLA-A24+ PHA blastoid T-cells: did not show cytotoxic activity

## TFDYLRSVL [Lck486]
[1]
  cytotoxic activity (% lysis) against HLA-A24- hematologic malignant line: did not show cytotoxic activity; also recorded: did not exhibit cytotoxic activity
[2]
  cytotoxic activity (% lysis) against HLA-A24+ hematologic malignant line: significant cytotoxic activity; also recorded: exhibited cytotoxic activity
[3]
  cytotoxic activity (% lysis) against HLA-A24+ PHA blastoid T-cells: did not show cytotoxic activity; also recorded: did not exhibit cytotoxic activity

## VYDYNCHVDL [SART-3109]
[4]; CLL patient No. 1, after the third vaccination
  delayed-type hypersensitivity reaction: delayed-type hypersensitivity reaction was observed
